Source: ChEMBL document CHEMBL1201862, “PubChem BioAssay data set” (2004)
Activity calls are given as the source filed them.

Tests used:
[1] = target: Glycogen synthase kinase-3 alpha (Homo sapiens, UniProt P49840); test: human GSK3 alpha kinase inhibition, dose response, selectivity assay for GSK3beta inhibitor project, biochemical, microfluidics, dry powder samples, set 2 (AID 623978); assay type: functional
[2] = target: T1, Cyclin-dependent kinase 5/CDK5 activator 1 (Homo sapiens, UniProt Q00535); test: CDK5-p25 kinase inhibition, dose response, selectivity assay for GSK3beta inhibitor project, biochemical, microfluidic mobility shift, dry powder, set 2 (AID 623979); assay type: functional
[3] = target: Glycogen synthase kinase-3 beta (Homo sapiens, UniProt P49841); test: GSK3beta kinase inhibitors, dose response, biochemical, microfluidics, dry powder samples, set 2 (AID 623989); assay type: functional
[4] = target: Dual specificity tyrosine-phosphorylation-regulated kinase 1A (Rattus norvegicus, UniProt Q63470); assay type: biochemical, Homo sapiens
[5] = HepG2 cell cytotoxicity, dose response, cytotoxicity control, ATP luminescence, cherry-pick, activator set 2 (AID 1053143); assay type: functional, cell-based
[6] = THP-1 cell cytotoxicity, dose response, cytotoxicity control for Vif-APOBEC3G degradation inhibitor project, THP-1 cells (AID 1117359); assay type: functional; settings: Human immunodeficiency virus 1, THP-1
[7] = target: T1, Cyclin-dependent kinase 5/CDK5 activator 1; test: CDK5/p35 kinase inhibitors, dose response, biochemical, cherry-picked samples, set 2 (AID 504545)

T1 sequence (Q00535 whole entry): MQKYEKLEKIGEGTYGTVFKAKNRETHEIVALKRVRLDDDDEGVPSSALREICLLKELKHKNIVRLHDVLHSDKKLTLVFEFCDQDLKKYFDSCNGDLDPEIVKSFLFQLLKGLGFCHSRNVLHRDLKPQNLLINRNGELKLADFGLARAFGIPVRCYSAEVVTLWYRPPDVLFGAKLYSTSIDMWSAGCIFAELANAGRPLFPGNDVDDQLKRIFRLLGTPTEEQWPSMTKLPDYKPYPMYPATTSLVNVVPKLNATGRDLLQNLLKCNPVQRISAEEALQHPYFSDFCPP
T1 sequence (Q15078 whole entry, further chain): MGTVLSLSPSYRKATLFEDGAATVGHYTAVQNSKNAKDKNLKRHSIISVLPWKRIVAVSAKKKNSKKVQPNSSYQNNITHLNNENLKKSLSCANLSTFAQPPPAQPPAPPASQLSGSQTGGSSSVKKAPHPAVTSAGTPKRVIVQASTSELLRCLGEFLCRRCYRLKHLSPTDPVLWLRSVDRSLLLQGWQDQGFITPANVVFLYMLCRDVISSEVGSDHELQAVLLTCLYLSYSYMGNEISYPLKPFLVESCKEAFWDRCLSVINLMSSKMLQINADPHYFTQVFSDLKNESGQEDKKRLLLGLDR
Chain of Glycogen synthase kinase-3 alpha (P49840 whole entry): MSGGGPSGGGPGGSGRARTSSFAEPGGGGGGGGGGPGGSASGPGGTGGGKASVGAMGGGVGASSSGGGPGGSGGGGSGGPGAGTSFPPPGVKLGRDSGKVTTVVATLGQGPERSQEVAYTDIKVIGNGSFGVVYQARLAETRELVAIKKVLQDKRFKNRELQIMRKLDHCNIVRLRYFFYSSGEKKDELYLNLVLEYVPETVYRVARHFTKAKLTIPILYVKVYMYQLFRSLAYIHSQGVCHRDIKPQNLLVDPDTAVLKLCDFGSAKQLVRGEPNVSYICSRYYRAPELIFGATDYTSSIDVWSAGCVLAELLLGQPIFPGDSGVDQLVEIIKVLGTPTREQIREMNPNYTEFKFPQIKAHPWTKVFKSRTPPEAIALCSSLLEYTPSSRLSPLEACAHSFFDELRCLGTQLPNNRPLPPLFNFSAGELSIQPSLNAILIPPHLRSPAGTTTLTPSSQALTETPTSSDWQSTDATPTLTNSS
Chain of Glycogen synthase kinase-3 beta (P49841 whole entry): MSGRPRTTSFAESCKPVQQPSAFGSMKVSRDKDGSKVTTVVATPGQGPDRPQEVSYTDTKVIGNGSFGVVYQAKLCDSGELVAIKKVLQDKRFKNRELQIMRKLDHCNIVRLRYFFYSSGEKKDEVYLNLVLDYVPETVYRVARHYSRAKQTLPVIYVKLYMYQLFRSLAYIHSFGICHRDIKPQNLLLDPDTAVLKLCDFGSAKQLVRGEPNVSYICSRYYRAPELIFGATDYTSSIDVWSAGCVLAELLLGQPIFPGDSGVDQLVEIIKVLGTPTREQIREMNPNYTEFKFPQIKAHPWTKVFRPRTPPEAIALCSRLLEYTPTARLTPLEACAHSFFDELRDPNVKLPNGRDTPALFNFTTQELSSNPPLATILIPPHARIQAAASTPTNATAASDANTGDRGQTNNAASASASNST

Nc1nc(Nc2ccccc2)sc1C(=O)c1ccccc1
active: AC50 [1] 168 nM | AC50 [2] 190 nM | AC50 [3] 36 nM | AC50 [4] 811 nM | AC50 [5] 18900 nM | CC50 [6] 14000 nM | AC50 [7] 2270 nM
